# Source: ChEMBL document CHEMBL2163329, “Tuberculosis: the drug development pipeline at a glance” (Eur J Med Chem, 2012)
# How the values were obtained:
# [1] = test system: Mycobacterium tuberculosis; experiment: Antimycobacterial activity against Mycobacterium tuberculosis infected in mouse assessed as log reduction of CFU in lung at 100 mg/kg; format: functional
# [2] = AUC (0 to 24 hrs) in monkey at 5 mg/kg; format: ADME, organism-based, Macaca mulatta; design: time < 24 hr, dose 5 mg/kg; conditions: rhesus monkey, plasma
# [3] = Cmax in monkey at 5 mg/kg; format: ADME, organism-based, Macaca mulatta; design: dose 5 mg/kg; conditions: rhesus monkey, in vivo
# [4] = Cmax in mouse serum at 100 mg/kg; format: ADME, organism-based; design: dose 100 mg/kg
# [5] = Half life in mouse lung at 100 mg/kg; format: ADME, organism-based; design: dose 100 mg/kg
# [6] = AUC (0 to infinity) in mouse serum at 100 mg/kg; format: ADME, organism-based; design: time infinity, dose 100 mg/kg
# [7] = Half life in mouse serum at 100 mg/kg; format: ADME, organism-based; design: dose 100 mg/kg
# [8] = test system: Mycobacterium tuberculosis; experiment: Ratio of gatifloxacin MIC to compound MIC for Mycobacterium tuberculosis; format: functional
# [9] = test system: Mycobacterium tuberculosis; experiment: Ratio of moxifloxacin MIC to compound MIC for Mycobacterium tuberculosis; format: functional
# [10] = test system: Mycobacterium tuberculosis; experiment: Ratio of levofloxacin MIC to compound MIC for Mycobacterium tuberculosis; format: functional
# [11] = test system: Mycobacterium tuberculosis; experiment: Antimycobacterial activity against drug-sensitive Mycobacterium tuberculosis; format: functional
# [12] = AUC in mouse at 100 mg/kg; format: ADME, organism-based; design: dose 100 mg/kg; conditions: plasma
# [13] = test system: Mycolicibacterium smegmatis; experiment: Antimycobacterial activity against Mycobacterium smegmatis; format: functional
# [14] = test system: Mycobacterium tuberculosis; experiment: Antimycobacterial activity against Mycobacterium tuberculosis; format: functional
# [15] = test system: Mycobacterium tuberculosis; experiment: Antimycobacterial activity against Mycobacterium tuberculosis infected in macrophages assessed as bacterial growth inhibition at 4 ug/mL; format: functional; conditions: read-out: GI
# [16] = test system: Mycobacterium tuberculosis; experiment: Antimycobacterial activity against Mycobacterium tuberculosis infected in human assessed as log reduction of bacterial count at 100 to 400 mg, qd for 14 days; format: functional
# [17] = Tmax in smear positive tuberculosis patient; format: ADME, organism-based; conditions: human, in vivo
# [18] = AUC in Mycobacterium tuberculosis infected mouse at 2.5 mg/kg; format: ADME, organism-based; design: dose 2.5 mg/kg; conditions: plasma
# [19] = Tmax in Mycobacterium tuberculosis infected mouse at 2.5 mg/kg; format: ADME, organism-based; design: dose 2.5 mg/kg; conditions: in vivo
# [20] = test system: Mycobacterium tuberculosis; experiment: Antimycobacterial activity against Mycobacterium tuberculosis infected in human assessed as log reduction of bacterial count at 400 mg, qd measured up to 7 days; format: functional
# [21] = AUC at steady state (0 to 24 hrs) in human at 400 mg, po qd for 14 days; format: ADME, organism-based; design: dose 400 mg, time < 24 hr, route oral; conditions: plasma
# [22] = AUC at steady state (0 to 24 hrs) in human at 50 mg, po qd for 14 days; format: ADME, organism-based; design: dose 50 mg, time < 24 hr, route oral; conditions: plasma
# [23] = AUC at steady state (0 to 24 hrs) in human at 150 mg, po qd for 14 days; format: ADME, organism-based; design: dose 150 mg, time < 24 hr, route oral; conditions: plasma
# [24] = Cmax in human at 10 mg, po; format: ADME, organism-based; design: dose 10 mg, route oral; conditions: in vivo
# [25] = Cmax in human at 400 mg, po; format: ADME, organism-based; design: dose 400 mg, route oral; conditions: in vivo
# [26] = test system: Mycobacterium tuberculosis; experiment: Antimycobacterial activity against Mycobacterium tuberculosis clinical isolate; format: functional
# [27] = test system: Mycobacterium tuberculosis; experiment: Antimycobacterial activity against Mycobacterium tuberculosis H37Rv; format: functional
# [28] = test system: Mycobacterium tuberculosis; experiment: Antimycobacterial activity against Mycobacterium tuberculosis H37Rv infected in BALB/c mouse assessed as log reduction of CFU in lung at 300 mg/kg, po administered 6 times per week for 4 weeks; format: functional
# [29] = test system: Mycobacterium tuberculosis; experiment: Antimycobacterial activity against Mycobacterium tuberculosis H37Rv infected in BALB/c mouse assessed as log reduction of CFU in spleen at 300 mg/kg, po administered 6 times per week for 4 weeks; format: functional
# [30] = AUC in Mycobacterium tuberculosis H37Rv infected BALB/c mouse at 37.5 to 300 mg/kg, po administered 6 times per week for 4 weeks; format: ADME, organism-based; design: dose 37.5-300 mg/kg, route oral; conditions: plasma
# [31] = Cmax in Mycobacterium tuberculosis H37Rv infected BALB/c mouse at 37.5 to 300 mg/kg, po administered 6 times per week for 4 weeks; format: ADME, organism-based; design: dose 37.5-300 mg/kg, route oral; conditions: in vivo
# [32] = test system: Mycobacterium tuberculosis; experiment: Antimycobacterial activity against Mycobacterium tuberculosis infected in human assessed as log reduction of bacterial count at 400 mg, qd measured up to 2 days; format: functional
# [33] = AUC in human at 400 mg, po; format: ADME, organism-based; conditions: plasma
# [34] = (§1) Tmax in human at 400 mg, po; format: ADME, organism-based; conditions: in vivo, 400 mg
# [35] = Half life in human at 400 mg, po; format: ADME, organism-based; conditions: in vivo
# [36] = test system: Mycobacterium tuberculosis; experiment: Antimycobacterial activity against Mycobacterium tuberculosis infected in human assessed as log reduction of bacterial count at 300 mg, qd measured up to 2 days; format: functional
# [37] = test system: Homo sapiens; experiment: as §1; format: ADME, organism-based; conditions: in vivo
# [38] = Bioavailability in human; format: ADME, organism-based; conditions: in vivo
# [39] = Bioavailability in human at 1200 mg; format: ADME, organism-based; conditions: in vivo
# [40] = Bioavailability in human at 50 mg; format: ADME, organism-based; conditions: in vivo
# [41] = test system: Mycobacterium tuberculosis; experiment: Antimycobacterial activity against Mycobacterium tuberculosis infected in human assessed as log reduction of bacterial count at 200 to 1200 mg; format: functional
# [42] = Cmax in human at 50 to 1500 mg, po; format: ADME, organism-based; conditions: in vivo
# [43] = AUC in human at 50 to 1500 mg, po; format: ADME, organism-based; conditions: plasma
# [44] = Tmax in human at 50 to 1500 mg, po; format: ADME, organism-based; conditions: in vivo
# [45] = test system: Mycobacterium tuberculosis; experiment: Antimycobacterial activity against Mycobacterium tuberculosis infected in mouse administered as qd; format: functional
# [46] = Half life in human up to 300 mg, po; format: ADME, organism-based; conditions: in vivo
# [47] = Oral bioavailability in mouse at 10 mg/kg; format: ADME, organism-based; conditions: in vivo
# [48] = test system: Mycobacterium tuberculosis; experiment: Antimycobacterial activity against Mycobacterium tuberculosis infected in mouse assessed as log reduction of CFU in spleen at 10 to 25 mg/kg after 30 days; format: functional; conditions: dose mg/kg 10-25
# [49] = test system: Mycobacterium tuberculosis; experiment: Antimycobacterial activity against Mycobacterium tuberculosis infected in mouse assessed as log reduction of CFU in lung at 10 to 25 mg/kg after 30 days; format: functional; conditions: dose mg/kg 10-25
structure (smiles),measurement,setting,value
COc1c(N2CC3(CC3)[C@](C)(N)C2)c(F)cc2c(=O)c(C(=O)O)cn([C@@H]3C[C@@H]3F)c12,log10cfu,[1],2
same,AUC(0-t) at 24 h,[2],16900 ng·h/mL
same,Cmax,[3],2200 ng/mL
same,Cmax,[4],10300 ng/mL
same,half-life,[5],1.93 h
same,AUC(0-inf),[6],14700 ng·h/mL
same,half-life,[7],1.51 h
same,Ratio,[8],4
same,Ratio,[9],4
same,Ratio,[10],4
same,MIC90,[11],0.06 µg/mL
N#CCC(=O)N1CCC(c2nc(-c3cccs3)no2)CC1,AUC,[12],82000 ng·h/mL
C[C@@H]1COC2(CCN(c3nc(=O)c4cc(C(F)(F)F)cc([N+](=O)[O-])c4s3)CC2)O1,MIC,[13],0.004 µg/mL
same,MIC,[14],0.001 µg/mL
OC1CCN(C2CCN(CC34CC5CC(CC(C5)C3)C4)CC2)CC1,inhibition of growth at 4 µg/mL,[15],90%
C[C@]1(COc2ccc(N3CCC(Oc4ccc(OC(F)(F)F)cc4)CC3)cc2)Cn2cc([N+](=O)[O-])nc2O1,log10CFU/ml/day,[16],0.04
same,Tmax,[17],4 h
same,AUC,[18],4130 ng·h/mL
same,Tmax,[19],6 h
same,MIC,[11],0.006 µg/mL
CC(=O)NC[C@H]1CN(c2ccc([S+](C)[O-])cc2)C(=O)O1 (stereo not given in full),MIC,[14],0.3 µg/mL
COc1nc2ccc(Br)cc2cc1[C@@H](c1ccccc1)[C@@](O)(CCN(C)C)c1cccc2ccccc12 [BEDAQUILINE],log10CFU/ml,[20],0.77
same,AUC at 24 h,[21],52000 ng·h/mL
same,AUC at 24 h,[22],7900 ng·h/mL
same,AUC at 24 h,[23],24000 ng·h/mL
same,Cmax,[24],70 ng/mL
same,MIC,[11],0.003 µg/mL
same,Cmax,[25],9000 ng/mL
same,MIC,[26],0.03 µg/mL
same,MIC99,[27],0.03 µg/mL
C[C@H]1COC2(CCN(c3nc(=O)c4cc(C(F)(F)F)cc([N+](=O)[O-])c4s3)CC2)O1 [BTZ-043],log10cfu,[28],1
same,log10cfu,[29],2
same,AUC at 672 h,[30],4600 ng·h/mL
same,Cmax,[31],2000 ng/mL
same,MIC,[13],0.004 µg/mL
same,MIC,[14],0.001 µg/mL
CC(=O)NC[C@H]1CN(c2ccc(C(C)=O)cc2)C(=O)O1 [DUP-721],MIC,[14],0.3 µg/mL
COc1c(N2CCNC(C)C2)c(F)cc2c(=O)c(C(=O)O)cn(C3CC3)c12 (stereo not given) [GATIFLOXACIN],log10CFU/ml/day,[32],0.35
same,AUC,[33],30000 ng·h/mL
same,Tmax,[34],1.5 h
same,half-life,[35],6.5 h
same,Cmax,[25],3400 ng/mL
same,MIC90,[26],0.007 µg/mL
same,MIC,[27],0.12 µg/mL
NNC(=O)c1ccncc1 [ISONIAZID],log10CFU/ml,[20],1.88
same,log10CFU/ml/day,[36],0.67
CC(=O)NC[C@H]1CN(c2ccc(N3CCOCC3)c(F)c2)C(=O)O1 [LINEZOLID],MIC,[14],0.125 µg/mL
COc1c(N2C[C@@H]3CCCN[C@@H]3C2)c(F)cc2c(=O)c(C(=O)O)cn(C3CC3)c12 [MOXIFLOXACIN],log10CFU/ml/day,[32],0.33
same,AUC,[33],39000 ng·h/mL
same,Tmax,[37],1 h
same,bioavailability,[38],90%
same,Cmax,[25],4300 ng/mL
same,MIC,[27],0.18 µg/mL
O=C([C@@H](O)CO)N1CC=C(c2c(F)cc(N3C[C@H](COc4ccon4)OC3=O)cc2F)CC1 [POSIZOLID],bioavailability,[39],< 30%
same,bioavailability,[40],100%
O=[N+]([O-])c1cn2c(n1)OC[C@@H](OCc1ccc(OC(F)(F)F)cc1)C2 [PRETOMANID],log10CFU/ml/day,[41],0.1
same,Cmax,[42],300 ng/mL
same,AUC,[43],7500 ng·h/mL
same,Tmax,[44],4 h
same,MBC,[45],100 mg/kg
same,minimal effective dose,"[45]; Mycobacterium tuberculosis, read-out: MED",12.5 mg/kg
same,MIC,[11],0.06 µg/mL
same,MIC,[27],0.039 µg/mL
CO[C@H]1/C=C/O[C@@]2(C)Oc3c(C)c(O)c4c(O)c(c(/C=N/N5CCN(C)CC5)c(O)c4c3C2=O)NC(=O)/C(C)=C\C=C\[C@H](C)[C@H](O)[C@@H](C)[C@@H](O)[C@@H](C)[C@H](OC(C)=O)[C@@H]1C [RIFAMPIN],log10CFU/ml,[20],1.7
CC(C)=CCC/C(C)=C/CNCCNC1C2CC3CC(C2)CC1C3 (stereo not given) [SQ109],half-life,[46],61 h
same,bioavailability,[47],8%
same,log10cfu,[48],1.5
same,log10cfu,[49],1.5
same,MIC,[11],0.63 µM
CC(=O)NC[C@H]1CN(c2ccc(N3CCSCC3)c(F)c2)C(=O)O1 [SUTEZOLID],MIC,[11],0.03 µg/mL
